Key:
Test in all cases: relative viability (nuclei count vs DMSO), 5 days (fraction); higher = more cells survive
A-427 = test system: A-427
How it was run: (§1)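 Each reported value is a median over duplicate plates. It expresses relative viability: treated-well nuclei count divided by vehicle-well nuclei count. Lung cancer cell lines in 1536-well plates were dosed by pin tool a day after seeding, alone with one drug or with a fixed anchor-drug dose plus five library-drug doses (not always all listed) in √10 steps, and nuclei were counted after 5 days.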

LU99A = test system: LU99A
How it was run: as §1

HARA = test system: HARA
How it was run: as §1

NCI-H441 = test system: NCI-H441
How it was run: as §1

LCLC-97TM1 = test system: LCLC-97TM1
How it was run: as §1

NCI-H23 = test system: NCI-H23
How it was run: as §1

NCI-H460 = test system: NCI-H460
How it was run: as §1

SK-LU-1 = test system: SK-LU-1
How it was run: as §1

NCI-H2023 = test system: NCI-H2023
How it was run: as §1

NCI-H1666 = test system: NCI-H1666
How it was run: as §1

NCI-H2126 = test system: NCI-H2126
How it was run: as §1

LOU-NH91 = test system: LOU-NH91
How it was run: as §1

SMILES: CCCCCCCCCCCC1=C(O)C(=O)C=C(O)C1=O [Embelin] + CC(=O)c1c(C)c2cnc(Nc3ccc(N4CCNCC4)cn3)nc2n(C2CCCC2)c1=O [Palbociclib] (partner 0.5 µM)
- relative viability (A-427; first compound 0.08 µM): 0.525
- relative viability (A-427; first compound 0.8 µM): 0.563
- relative viability (A-427; first compound 2.53 µM): 0.526
- relative viability (A-427; first compound 8 µM): 0.496
- relative viability (LU99A; first compound 0.08 µM): 0.471
- relative viability (LU99A; first compound 0.8 µM): 0.411
- relative viability (LU99A; first compound 2.53 µM): 0.394
- relative viability (LU99A; first compound 8 µM): 0.374
- relative viability (HARA; first compound 0.08 µM): 0.269
- relative viability (HARA; first compound 0.8 µM): 0.324
- relative viability (HARA; first compound 2.53 µM): 0.301
- relative viability (HARA; first compound 8 µM): 0.32
- relative viability (NCI-H441; first compound 0.08 µM): 0.217
- relative viability (NCI-H441; first compound 0.8 µM): 0.221
- relative viability (NCI-H441; first compound 2.53 µM): 0.193
- relative viability (NCI-H441; first compound 8 µM): 0.195
- relative viability (LCLC-97TM1; first compound 0.08 µM): 0.184
- relative viability (LCLC-97TM1; first compound 0.8 µM): 0.215
- relative viability (LCLC-97TM1; first compound 2.53 µM): 0.262
- relative viability (LCLC-97TM1; first compound 8 µM): 0.242
- relative viability (NCI-H23; first compound 0.08 µM): 0.516
- relative viability (NCI-H23; first compound 0.8 µM): 0.543
- relative viability (NCI-H23; first compound 2.53 µM): 0.533
- relative viability (NCI-H23; first compound 8 µM): 0.594
- relative viability (NCI-H460; first compound 0.08 µM): 0.169
- relative viability (NCI-H460; first compound 0.8 µM): 0.227
- relative viability (NCI-H460; first compound 2.53 µM): 0.134
- relative viability (NCI-H460; first compound 8 µM): 0.156
- relative viability (SK-LU-1; first compound 0.08 µM): 0.419
- relative viability (SK-LU-1; first compound 0.8 µM): 0.41
- relative viability (SK-LU-1; first compound 2.53 µM): 0.621
- relative viability (SK-LU-1; first compound 8 µM): 0.274
- relative viability (NCI-H2023; first compound 0.08 µM): 0.379
- relative viability (NCI-H2023; first compound 0.8 µM): 0.345
- relative viability (NCI-H2023; first compound 2.53 µM): 0.455
- relative viability (NCI-H2023; first compound 8 µM): 0.351
- relative viability (NCI-H1666; first compound 0.08 µM): 0.638
- relative viability (NCI-H1666; first compound 0.8 µM): 0.624
- relative viability (NCI-H1666; first compound 2.53 µM): 0.641
- relative viability (NCI-H1666; first compound 8 µM): 0.681
- relative viability (NCI-H2126; first compound 0.08 µM): 0.342
- relative viability (NCI-H2126; first compound 0.8 µM): 0.342
- relative viability (NCI-H2126; first compound 2.53 µM): 0.345
- relative viability (NCI-H2126; first compound 8 µM): 0.339
- relative viability (LOU-NH91; first compound 0.08 µM): 0.551
- relative viability (LOU-NH91; first compound 0.8 µM): 0.556
- relative viability (LOU-NH91; first compound 2.53 µM): 0.542
- relative viability (LOU-NH91; first compound 8 µM): 0.52
